Laboratory results taken from US11414431B2, “Substituted pyrazolo[1,5-a]pyrimidines as TYK2 inhibitors” (Nimbus Lakshmi, Inc., priority 2018, dated 2022).

System: IL-12 induced STAT4 phosphorlyation mediated by TYK2/JAK2
Experiment: IL-12 Induced pSTAT4 in Human PBMC
Type: cell-based
Details: 1.7 ng/mL IL-12 for 30 minutes
Method in brief: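 pSTAT4 and total STAT4 quantified by MSD in lysates of cryopreserved human PBMC after 30-minute stimulation with 1.7 ng/mL IL-12 (final). Compound was added 1 hr beforehand at 37° C, 0.1% DMSO final.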

Row | SMILES | IC50 [µM] | IC50 (0.5 h) [µM]
1 | CNc1cc(-c2cn([C@H]3CC3(F)F)c3ncccc23)nc2c(C(=O)N[C@H]3CC[C@H]3O)cnn12 [Compound I-552] | < 0.1 | 
2 | CNc1cc(-c2cn(C3COC3)c3ncccc23)nc2c(C(=O)N[C@H]3CC[C@H]3O)cnn12 [Compound I-555] | < 0.1 | 
3 | CNc1cc(-c2cn(C3COC3)c3ncccc23)nc2c(C(=O)N[C@H]3CC[C@@H]3O)cnn12 [Compound I-558] | < 0.1 | 
4 | CNc1cc(-c2cn([C@@H]3COC[C@@H]3F)c3ncccc23)nc2c(C(=O)N[C@H]3CC[C@H]3O)cnn12 [Compound I-571] | < 0.1 | 
5 | CNc1cc(-c2cn([C@H]3COC[C@H]3F)c3ncccc23)nc2c(C(=O)NC3CC[C@H]3O)cnn12 (stereo partly drawn) [Compound I-573] | < 0.1 | 
6 | CNc1cc(-c2cn([C@H]3COC[C@H]3F)c3ncccc23)nc2c(C(=O)N[C@H]3CC[C@H]3O)cnn12 [Compound I-574] | < 0.1 | 
7 | CNc1cc(-c2cn([C@@H]3COC[C@H]3OC)c3ncccc23)nc2c(C(=O)N[C@@H]3CC[C@@H]3O)cnn12 [Compound I-583] | 0.1 to 0.5 | 
8 | CNc1cc(-c2cn([C@@H]3COC[C@H]3OC)c3ncccc23)nc2c(C(=O)NC3CC[C@H]3O)cnn12 (stereo partly drawn) [Compound I-587] | 0.5 to 1 | 
9 | CNc1cc(-c2cn([C@@H]3CCOC[C@@H]3F)c3ncccc23)nc2c(C(=O)NC3CC[C@H]3O)cnn12 (stereo partly drawn) [Compound I-588] | 0.1 to 0.5 | 
10 | CNc1cc(-c2cn([C@H]3CCOC[C@H]3F)c3ncccc23)nc2c(C(=O)NC3CC[C@H]3O)cnn12 (stereo partly drawn) [Compound I-591] | 0.5 to 1 | 
11 | CNc1cc(-c2cn([C@@H]3CCOC[C@H]3F)c3ncccc23)nc2c(C(=O)NC3CC[C@H]3O)cnn12 (stereo partly drawn) [Compound I-592, 5-(1-((3S,4R)-3-Fluorotetrahydro-2H-pyran-4-yl)-1H-pyrrolo[2,3-b]pyridin-3-yl)-N-((cis-1,2)-2-hydroxycyclobutyl)-7-(methylamino)pyrazolo[1,5-a]pyrimidine-3-carboxamide] |  | < 0.1
12 | CNc1cc(-c2cn([C@H]3C[C@@H](O)C3)c3ncccc23)nc2c(C(=O)N[C@H]3CC[C@@H]3OC)cnn12 [Compound I-606] | < 0.1 | 
13 | CNc1cc(-c2cn([C@@H]3CCOC3)c3ncccc23)nc2c(C(=O)NC3CC[C@@H]3OC)cnn12 (stereo partly drawn) [Compound I-609] | < 0.1 | 
14 | CNc1cc(-c2cn([C@@H]3CCOC3)c3ncccc23)nc2c(C(=O)N[C@H]3CC[C@@H]3OC)cnn12 [Compound I-610] | < 0.1 | 
15 | CNc1cc(-c2cn([C@H]3CCOC3)c3ncccc23)nc2c(C(=O)NC3CC[C@@H]3OC)cnn12 (stereo partly drawn) [Compound I-612] | < 0.1 | 
16 | CNc1cc(-c2cn([C@H]3CCOC3)c3ncccc23)nc2c(C(=O)N[C@H]3CC[C@@H]3OC)cnn12 [Compound I-613] | < 0.1 | 
17 | CNc1cc(-c2cn([C@@H]3CCN(C)C3)c3ncccc23)nc2c(C(=O)NC3CC[C@@H]3OC)cnn12 (stereo partly drawn) [Compound I-615] | < 0.1 | 
18 | CNc1cc(-c2cn([C@@H]3CCN(C)C3)c3ncccc23)nc2c(C(=O)N[C@H]3CC[C@@H]3OC)cnn12 [Compound I-616] | < 0.1 | 
19 | CNc1cc(-c2cn([C@H]3CCN(C)C3)c3ncccc23)nc2c(C(=O)NC3CC[C@@H]3OC)cnn12 (stereo partly drawn) [Compound I-618] | < 0.1 | 

Row | SMILES | IC50 [µM] | IC50 (0.5 h) [µM]
20 | CNc1cc(-c2cn([C@H]3CCN(C)C3)c3ncccc23)nc2c(C(=O)N[C@H]3CC[C@@H]3OC)cnn12 [Compound I-619] | < 0.1 | 
21 | CNc1cc(-c2cn([C@@H]3COC[C@@H]3F)c3ncccc23)nc2c(C(=O)NC3CC[C@@H]3OC)cnn12 (stereo partly drawn) [Compound I-621] | < 0.1 | 
22 | CNc1cc(-c2cn([C@@H]3COC[C@@H]3F)c3ncccc23)nc2c(C(=O)N[C@H]3CC[C@@H]3OC)cnn12 [Compound I-622] | < 0.1 | 
23 | CNc1cc(-c2cn([C@H]3COC[C@H]3F)c3ncccc23)nc2c(C(=O)NC3CC[C@@H]3OC)cnn12 (stereo partly drawn) [Compound I-624, 5-(1-((3S,4S)-4-Fluorotetrahydrofuran-3-yl)-1H-pyrrolo[2,3-b]pyridin-3-yl)-N-((trans-1,2)-2-methoxycyclobutyl)-7-(methylamino)pyrazolo[1,5-a]pyrimidine-3-carboxamide] |  | < 0.1
24 | CNc1cc(-c2cn([C@H]3COC[C@H]3F)c3ncccc23)nc2c(C(=O)N[C@H]3CC[C@@H]3OC)cnn12 [Compound I-625] | < 0.1 | 
25 | CNc1cc(-c2cn([C@@H]3COC[C@H]3O)c3ncccc23)nc2c(C(=O)N[C@@H]3CC[C@H]3OC)cnn12 [Compound I-629] | < 0.1 | 
26 | CNc1cc(-c2cn([C@H]3COC[C@@H]3O)c3ncccc23)nc2c(C(=O)NC3CC[C@@H]3OC)cnn12 (stereo partly drawn) [Compound I-630] | 0.1 to 0.5 | 
27 | CNc1cc(-c2cn([C@H]3COC[C@@H]3O)c3ncccc23)nc2c(C(=O)N[C@H]3CC[C@@H]3OC)cnn12 [Compound I-631] | < 0.1 | 
28 | CNc1cc(-c2cn([C@H]3COC[C@@H]3OC)c3ncccc23)nc2c(C(=O)NC3CC[C@@H]3OC)cnn12 (stereo partly drawn) [Compound I-633] | < 0.1 | 
29 | CNc1cc(-c2cn([C@H]3COC[C@@H]3OC)c3ncccc23)nc2c(C(=O)N[C@H]3CC[C@@H]3OC)cnn12 [Compound I-634] | < 0.1 | 
30 | CNc1cc(-c2cn([C@@H]3COC[C@H]3OC)c3ncccc23)nc2c(C(=O)NC3CC[C@@H]3OC)cnn12 (stereo partly drawn) [Compound I-636] | < 0.1 | 
31 | CNc1cc(-c2cn([C@@H]3COC[C@H]3OC)c3ncccc23)nc2c(C(=O)N[C@H]3CC[C@@H]3OC)cnn12 [Compound I-637] | < 0.1 | 
32 | CNc1cc(-c2cn([C@H]3CN(C)C[C@@H]3F)c3ncccc23)nc2c(C(=O)NC3CC[C@@H]3OC)cnn12 (stereo partly drawn) [Compound I-639, 5-(1-((3S,4S)-4-Fluoro-1-methylpyrrolidin-3-yl)-1H-pyrrolo[2,3-b]pyridin-3-yl)-N-((trans-1,2)-2-methoxycyclobutyl)-7-(methylamino)pyrazolo[1,5-a]pyrimidine-3-carboxamide] |  | < 0.1
33 | CNc1cc(-c2cn([C@H]3CN(C)C[C@@H]3F)c3ncccc23)nc2c(C(=O)N[C@H]3CC[C@@H]3OC)cnn12 [Compound I-640] | < 0.1 | 
34 | CNc1cc(-c2cn([C@@H]3CN(C)C[C@H]3F)c3ncccc23)nc2c(C(=O)NC3CC[C@@H]3OC)cnn12 (stereo partly drawn) [Compound I-642] | < 0.1 | 
35 | CNc1cc(-c2cn([C@@H]3CN(C)C[C@H]3F)c3ncccc23)nc2c(C(=O)N[C@H]3CC[C@@H]3OC)cnn12 [Compound I-643] | < 0.1 | 
36 | CNc1cc(-c2cn([C@@H]3CN(C)C[C@H]3OC)c3ncccc23)nc2c(C(=O)NC3CC[C@@H]3OC)cnn12 (stereo partly drawn) [Compound I-645] | < 0.1 | 
37 | CNc1cc(-c2cn([C@@H]3CN(C)C[C@H]3OC)c3ncccc23)nc2c(C(=O)N[C@H]3CC[C@@H]3OC)cnn12 [Compound I-646] | < 0.1 | 
38 | CNc1cc(-c2cn([C@H]3CN(C)C[C@@H]3OC)c3ncccc23)nc2c(C(=O)N[C@H]3CC[C@@H]3OC)cnn12 [Compound I-649] | < 0.1 | 

Row | SMILES | IC50 [µM] | IC50 (0.5 h) [µM]
39 | CNc1cc(-c2cn([C@H]3CCOC[C@@H]3F)c3ncccc23)nc2c(C(=O)NC3CC[C@@H]3OC)cnn12 (stereo partly drawn) [Compound I-651] | < 0.1 | 
40 | CNc1cc(-c2cn([C@@H]3CCOC[C@H]3F)c3ncccc23)nc2c(C(=O)NC3CC[C@@H]3OC)cnn12 (stereo partly drawn) [Compound I-652] | < 0.1 | 
41 | CNc1cc(-c2cn([C@H]3CCOC[C@@H]3OC)c3ncccc23)nc2c(C(=O)N[C@H]3CC[C@@H]3OC)cnn12 [Compound I-663] | < 0.1 | 
42 | CNc1cc(-c2cn([C@H]3CCOC[C@H]3OC)c3ncccc23)nc2c(C(=O)NC3CC[C@@H]3OC)cnn12 (stereo partly drawn) [Compound I-665, N-((trans-1,2)-2-Methoxycyclobutyl)-5-(1-((3S,4S)-3-methoxytetrahydro-2H-pyran-4-yl)-1H-pyrrolo[2,3-b]pyridin-3-yl)-7-(methylamino)pyrazolo[1,5-a]pyrimidine-3-carboxamide] |  | < 0.1
43 | CNc1cc(-c2cn([C@H]3CCOC[C@H]3OC)c3ncccc23)nc2c(C(=O)N[C@H]3CC[C@@H]3OC)cnn12 [Compound I-666] | < 0.1 | 
44 | CNc1cc(-c2cn([C@@H]3CCOC[C@@H]3OC)c3ncccc23)nc2c(C(=O)NC3CC[C@@H]3OC)cnn12 (stereo partly drawn) [Compound I-668] | < 0.1 | 
45 | CNc1cc(-c2cn([C@@H]3CCOC[C@@H]3OC)c3ncccc23)nc2c(C(=O)N[C@H]3CC[C@@H]3OC)cnn12 [Compound I-669] | < 0.1 | 
46 | CNc1cc(-c2cn([C@H]3CCC4(C3)OCCO4)c3ncccc23)nc2c(C(=O)NC3CC[C@@H]3OC)cnn12 (stereo partly drawn) [Compound I-671] | < 0.1 | 
47 | CNc1cc(-c2cn([C@@H]3CCC4(C3)OCCO4)c3ncccc23)nc2c(C(=O)NC3CC[C@@H]3OC)cnn12 (stereo partly drawn) [Compound I-672] | < 0.1 | 
48 | CNc1cc(-c2cn(C3COC3)c3ncccc23)nc2c(C(=O)NC3CCC3(F)F)cnn12 (stereo not drawn) [Compound I-673] | < 0.1 | 
49 | CNc1cc(-c2cn(C3COC3)c3ncccc23)nc2c(C(=O)N[C@@H]3CCC3(F)F)cnn12 [Compound I-675] | < 0.1 | 
50 | CNc1cc(-c2cn(C3CN(C)C3)c3ncccc23)nc2c(C(=O)NC3CCC3(F)F)cnn12 (stereo not drawn) [Compound I-676] | < 0.1 | 
51 | CNc1cc(-c2cn([C@H]3C[C@@H](O)C3)c3ncccc23)nc2c(C(=O)NC3CCC3(F)F)cnn12 (stereo partly drawn) [Compound I-677] | < 0.1 | 
52 | CNc1cc(-c2cn(C3CCCC3)c3ncccc23)nc2c(C(=O)NC3CCC3(F)F)cnn12 (stereo not drawn) [Compound I-680] | < 0.1 | 
53 | CNc1cc(-c2cn(C3CCCC3)c3ncccc23)nc2c(C(=O)N[C@@H]3CCC3(F)F)cnn12 [Compound I-681] | < 0.1 | 
54 | CNc1cc(-c2cn(C3CCCC3)c3ncccc23)nc2c(C(=O)NC3CCC3(F)F)cnn12 (stereo not drawn) [Compound I-683] | < 0.1 | 
55 | CNc1cc(-c2cn(C3CCCC3)c3ncccc23)nc2c(C(=O)N[C@H]3CCC3(F)F)cnn12 [Compound I-685] | < 0.1 | 
56 | CNc1cc(-c2cn([C@@H]3CCN(C)C3)c3ncccc23)nc2c(C(=O)NC3CCC3(F)F)cnn12 (stereo partly drawn) [Compound I-686] | < 0.1 | 
57 | CNc1cc(-c2cn([C@@H]3COC[C@H]3O)c3ncccc23)nc2c(C(=O)NC3CCC3(F)F)cnn12 (stereo partly drawn) [Compound I-692] | < 0.1 | 
